Assay [1] relates to Normal human corneal epithelial cells. In words: Effect on increase of cell number of normal human corneal epithelial cells (Experimental Example 1, Cell Counting Kit-8). The assay is classed as cell-based. The note with it: for cell number increase rate: 24 hr stimulation, relative to non-addition group = 100%, mean ± SD, N = 3-4. As for the experimental part: Normal human corneal epithelial cells (KURABO) were used.
As a test substance, [3-[2-[4-isopropyl-2-(4-trifluoromethyl)phenyl-5-thiazolyl]ethyl]-5-methyl-1,2-benzisoxazol-6-yl]oxyacetic acid (hereinafter to be referred to as compound A) was used. Compound A was dissolved in ethanol (Wako Pure Chemical Industries, Ltd.) to a concentration 200-fold of the final concentration in a culture medium, and the solution was stored at −80° C. until immediately before use.
As a cell culture medium for consideration of the cell number-increasing effect by compound A, a culture medium (basal medium) obtained by adding insulin, hydrocortisone and transferrin contained in HCGS growth additive set (KURABO) to EpiLife (KURABO) was used.
Normal human corneal epithelial cells cryopreserved in liquid nitrogen were thawed and the cell number was counted. The total amount thereof was transferred to EpiLife added with all of the HCGS growth additive set (insulin, epidermal growth factor mEGF derived from mouse, hydrocortisone, transferrin, bovine brain hypophysis extract) (4 mL, complete medium), and suspended well therein. The cell suspension was seeded on a fibronectin-coated 24 well plate (Becton Dickinson) at a cell number of 2×10^4 cells/500 μL/well (1×10^4 cells/cm^2 since bottom area was 2 cm^2).
After completion of cell seeding, the culture plate was incubated in an incubator set to 37° C., 5% CO2, 95% air and 100% humidity for 24 hr, and the culture medium was changed to 400 μL of the basal medium (EpiLife added with insulin, hydrocortisone and transferrin from HCGS growth additives).
After 24 hr thereafter, the culture medium was changed to the following culture medium (each 400 μL). • [1] basal medium alone (non-addition group) • [2] basal medium+mEGF (final concentration: 1 ng/mL; positive control group) • [3] basal medium+compound A (final concentration: 0.1 nM, 1 nM, 0.01 μM, 0.1 μM; compound A addition group)
Ethanol (5 μL) was added to 1 mL each of culture media and [2] to uniformly set the ethanol concentration of all culture media to 0.5%.
After 24 hr from the start of the stimulation with compound A, the culture supernatant was removed from each well, and a basal medium added with 10% Cell Counting Kit-8 (DOJINDO) was dispensed to each well by 200 μL. After dispensing, the culture plate was transferred to an incubator set to 37° C., 5% CO2, 95% air and 100% humidity and incubated for 2 hr. The supernatant (100 μL) was transferred to a 96 well culture plate for tissue culture (Corning), and the absorbance of each well at 450 nm was measured with a microplate reader (Dainippon Sumitomo Pharma Co., Ltd.), and used as an index of cell number increase.
The values of the positive control group and the compound A addition group were calculated based on the average absorbance of the non-addition group as 100%, and the non-addition group was compared with the compound A addition group and positive control group according to the Dunnett multiple comparison test (one-tailed). A critical value of less than 5% as a result of the test was judged as significant.
In general terms: Tetrazolium assays rely on reduction of a dye to a coloured formazan, in cell work by metabolically active cells.

The test system of assay [2] is corneal epithelial defect. In words: Promoting action on corneal epithelial wound healing after corneal epithelial scraping (Experimental Example 2). The assay is classed as in vivo, Japanese white rabbits. The note with it: rabbit; for ratio of the remaining corneal epithelial defect: mean ± SD, N = 6. As for the experimental part: Male Japanese white rabbits (KITAYAMA LABES Co., Ltd.) were used. The experimental animals were used according to the International Guiding Principles for Biomedical Research involving Animals.
Compound A was used as a test substance. Compound A was dissolved in the following vehicle at 0.0005% or suspended in the following vehicle at 0.005% and used as an instillation.
As a control for the compound A administration group, the above-mentioned vehicle instillation group free of medicament was used.
Animals received intramuscular injection (1 mL/kg) of a Selactal (2% xylazine; Bayer, Ltd.): Ketalar (5% ketamine; DAIICHI SANKYO COMPANY, LIMITED)=1:1 mixture for systemic anesthesia, and oxybuprocaine hydrochloride instillation (Benoxil instillation 0.4%; Santen Pharmaceutical CO., Ltd.) and then the eyeballs were exposed. Using a trephine with a diameter of 10 mm, a mark (diameter 10 mm) was stamped on the corneal epithelium in the central part of the cornea, and the entire corneal epithelial layer within the marked circle was scraped off with a handy rooter under a stereomicroscope. After scraping, the corneal surface was washed with physiological saline (OTSUKA PHARMACEUTICAL FACTORY, INC.), and the corneal epithelial scraping treatment was completed by placing the eyeball back in the orbitae.
Compound A instillation or an instillation vehicle was instilled by 50 μL each time into the treated eye with a micropipette twice a day on the day of corneal epithelial scraping and four times a day from the next day to the completion of the test.
Using the time point when the corneal epithelial scraping was completed in all animals as a test starting time (0 hr), the area of corneal epithelium defect was quantified 40, 48, 56 and 64 hr later, based on which wound healing of the corneal epithelium was evaluated. To be precise, 0.1% fluorescein sodium (Wako Pure Chemical Industries, Ltd.) solution (10 μL) was instilled into the treated eye at each time point, and the anterior ocular segment of the animals was immediately photographed using a slit lamp with a blue filter, whereby the fluorescein-stained corneal epithelial deficient region was recorded. The developed photograph was stored as digital images on a computer, and the area of the fluorescein-stained corneal epithelial defect was measured using an image analysis software (Image-Pro Plus).
The area of the fluorescein-stained corneal epithelial defect measured at each time point was calculated based on the initial value of each animal as 100%, and taken as the ratio of the remaining corneal epithelial defect. The ratio of the remaining corneal epithelial defect at each time point was compared between the vehicle instillation group and compound A instillation group using the t-test. A critical value of less than 5% as a result of the test was judged as significant.

These results are taken from patent US8802705B2, “Pharmaceutical containing PPAR delta agonist” (Senju Pharmaceutical Co., Ltd., priority 2007, dated 2014).

On to `Cc1cc2c(CCc3sc(-c4ccc(C(F)(F)F)cc4)nc3C(C)C)noc2cc1OCC(=O)O` [compound A, [3-[2-[4-isopropyl-2-(4-trifluoromethyl)phenyl-5-thiazolyl]ethyl]-5-methyl-1,2-benzisoxazol-6-yl]oxyacetic acid], for which the “effect on cell number of normal human corneal epithelial cells (in words)” value in assay [1] (0.1 nM-0.1 μM, conclusion of the test) was “increases the cell number of normal human corneal epithelial cells”. Further, the “cell number increase rate” value in assay [1] (10^−7 M) stood at 172.6 ± 16.0%; in assay [1] (10^−8 M), 187.4 ± 10.2%; in assay [1] (10^−9 M), 169.0 ± 8.2%; in assay [1] (10^−10 M), 177.4 ± 20.8%. The “ratio of the remaining corneal epithelial defect” value in assay [2] (0.0005% instillation, 0 hr (initial value)) stood at 100.0 ± 0.0%; in assay [2] (0.0005% instillation, 40 hr later, initial value = 100%), 24.8 ± 2.7%; in assay [2] (0.0005% instillation, 48 hr later, initial value = 100%) it was 11.8 ± 2.9 %; in assay [2] (0.0005% instillation, 56 hr later, initial value = 100%), 3.8 ± 2.8%; in assay [2] (0.0005% instillation, 64 hr later, initial value = 100%), 0.8 ± 1.4%; in assay [2] (0.005% instillation, 0 hr (initial value)), 100.0 ± 0.0%. Also, the “ratio of the remaining corneal epithelial defect” value is on record as 18.6 ± 8.0 % in assay [2] (0.005% instillation, 40 hr later, initial value = 100%); 9.1 ± 6.4 % in assay [2] (0.005% instillation, 48 hr later, initial value = 100%); 3.4 ± 3.7% in assay [2] (0.005% instillation, 56 hr later, initial value = 100%); 0.9 ± 1.3% in assay [2] (0.005% instillation, 64 hr later, initial value = 100%). Further, the “effect on wound healing of corneal epithelial defect (in words)” value in assay [2] (instillation 0.0005% or 0.005%, conclusion of the test) was “promotes wound healing of corneal epithelial defect”.
